Measured values published in paper PMC10165273, “Itch receptor MRGPRX4 interacts with the receptor activity–modifying proteins” (The Journal of Biological Chemistry, 2023).
Values joined by “and” are separate entries in the source; they are usually repeats but may differ in a detail not shown here. Equal entries are not always repeated. Where two headings read alike, the source gives them in different places.

Target: T1, MRGPRX4 (Homo sapiens, UniProt Q96LA9)
T1 construct: expressed in transfected cells; host or cells: HEK293T
Test: IP1 accumulation HTRF assay, MRGPRX4
Type: cell-based
Parameters: key to IP1 Basal / IP1 accumulation with YM (Figure 1c) / response to agonist, MRGPRX4 / IP1 accumulation: % IP1: unstimulated mock-transfected = 0%, fully stimulated MRGPRX4 = 100%

T1 sequence (Q96LA9 whole entry): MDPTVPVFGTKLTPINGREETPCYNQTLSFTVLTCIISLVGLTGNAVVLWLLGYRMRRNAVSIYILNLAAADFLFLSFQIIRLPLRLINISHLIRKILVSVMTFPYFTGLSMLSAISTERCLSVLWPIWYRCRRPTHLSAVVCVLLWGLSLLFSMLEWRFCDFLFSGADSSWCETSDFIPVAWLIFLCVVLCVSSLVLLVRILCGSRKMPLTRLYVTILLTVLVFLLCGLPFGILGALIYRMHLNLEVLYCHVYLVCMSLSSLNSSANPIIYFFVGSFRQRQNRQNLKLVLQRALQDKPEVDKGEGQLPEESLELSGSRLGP

CC(C)[C@H]1CC[C@H](C(=O)N[C@H](Cc2ccccc2)C(=O)O)CC1 [Nateglinide]
EC50 (MRGPRX4 0.25 pg DNA/cell, individual experiments, read-out: potency (Figure 1b top) (converted)): 13.5 µM (2×) and 12.5 µM
Emax (MRGPRX4 0.5 pg DNA/cell, individual experiments, read-out: efficacy (Figure 1b bottom)): 95.7%
EC50 (MRGPRX4 0.5 pg DNA/cell, individual experiments, read-out: potency (Figure 1b top) (converted)): 12.3 µM and 9.23 µM
Emax (MRGPRX4 1 pg DNA/cell, individual experiments, read-out: efficacy (Figure 1b bottom)): 104%
EC50 (MRGPRX4 1 pg DNA/cell, individual experiments, read-out: potency (Figure 1b top) (converted)): 10.9 µM and 9.68 µM and 8.2 µM
Emax (MRGPRX4 2 pg DNA/cell, individual experiments, read-out: efficacy (Figure 1b bottom)): 97.2%
EC50 (MRGPRX4 2 pg DNA/cell, individual experiments, read-out: potency (Figure 1b top) (converted)): 6.87 µM and 6.27 µM and 6.64 µM
IP1 Basal (MRGPRX4 (Fig. 1A), HEK293T, normalized to 100 μM nateglinide): 14.95
EC50 (MRGPRX4 (Fig. 1A), HEK293T, normalized to 100 μM nateglinide, read-out: IP1 EC50): 10.7 µM
EC50 (MRGPRX4, HEK293T (Fig. 1A), read-out: EC50 concentration, IP1 accumulation): 10.6 µM
IP1 accumulation (MRGPRX4: 2pg/cell, log [Nateglinide] (M) -4, Fig S1b/c): 100
IP1 accumulation (MRGPRX4: 2pg/cell, log [Nateglinide] (M) -4.69897, Fig S1b/c): 88.6878 and 83.9734
IP1 accumulation (MRGPRX4: 2pg/cell, log [Nateglinide] (M) -5.39794, Fig S1b/c): 45.9251 and 47.3838
IP1 accumulation (MRGPRX4: 2pg/cell, log [Nateglinide] (M) -6.09691, Fig S1b/c): 18.7171 and 20.7267
IP1 accumulation (MRGPRX4: 2pg/cell, log [Nateglinide] (M) -6.79588, Fig S1b/c): 11.3987 and 15.6075
IP1 accumulation (MRGPRX4: 2pg/cell, log [Nateglinide] (M) -7.49485, Fig S1b/c): 10.9025 and 14.1936
IP1 Basal (MRGPRX4 DNA 0.25 pg/cell (Fig. S1)): 4.926
EC50 (MRGPRX4 DNA 0.25 pg/cell (Fig. S1), read-out: IP1 EC50): 13.6 µM
Emax (MRGPRX4 DNA 0.25 pg/cell (Fig. S1), read-out: IP1 Emax): 84.4%
Emax (MRGPRX4 DNA 0.25 pg/cell (Fig. S1), read-out: IP1 span): 79.5%
IP1 Basal (MRGPRX4 DNA 0.5 pg/cell (Fig. S1)): 6.421
EC50 (MRGPRX4 DNA 0.5 pg/cell (Fig. S1), read-out: IP1 EC50): 11 µM
Emax (MRGPRX4 DNA 0.5 pg/cell (Fig. S1), read-out: IP1 Emax): 97.5%
Emax (MRGPRX4 DNA 0.5 pg/cell (Fig. S1), read-out: IP1 span): 91%
IP1 Basal (MRGPRX4 DNA 1 pg/cell (Fig. S1)): 9.219
EC50 (MRGPRX4 DNA 1 pg/cell (Fig. S1), read-out: IP1 EC50): 9.79 µM
Emax (MRGPRX4 DNA 1 pg/cell (Fig. S1), read-out: IP1 Emax): 106%
Emax (MRGPRX4 DNA 1 pg/cell (Fig. S1), read-out: IP1 span): 96.7%
IP1 Basal (MRGPRX4 DNA 2 pg/cell (Fig. S1)): 11.77
EC50 (MRGPRX4 DNA 2 pg/cell (Fig. S1), read-out: IP1 EC50): 6.8 µM
Emax (MRGPRX4 DNA 2 pg/cell (Fig. S1), read-out: IP1 Emax): 108%
Emax (MRGPRX4 DNA 2 pg/cell (Fig. S1), read-out: IP1 span): 96.3%
EC50 (MRGPRX4 DNA […] (Fig. S1), read-out: IP1 EC50): 13.9 µM
Emax (MRGPRX4 DNA […] (Fig. S1), read-out: IP1 Emax): 74.8%
Emax (MRGPRX4 DNA […] (Fig. S1), read-out: IP1 span): 72.2%
IP1 accumulation (MRGPRX4 alone, log [Nateglinide] (M) -4.69897, Fig S3a-c): 73.8798 and 88.0796
IP1 accumulation (MRGPRX4 alone, log [Nateglinide] (M) -5.39794, Fig S3a-c): 42.3002 and 52.0108
IP1 accumulation (MRGPRX4 alone, log [Nateglinide] (M) -6.09691, Fig S3a-c): 21.697 and 30.974
IP1 accumulation (MRGPRX4 alone, log [Nateglinide] (M) -6.79588, Fig S3a-c): 15.7135 and 25.7363
IP1 accumulation (MRGPRX4 alone, log [Nateglinide] (M) -7.49485, Fig S3a-c): 14.3426 and 24.4649
normalized IP1 accumulation (SP-FLAG-Nluc-HT7-MRGX4_Tet-GFP10-1D4, log [agonist] (M) -4.09691): 53.7873 and 50.7716
normalized IP1 accumulation (SP-FLAG-Nluc-HT7-MRGX4_Tet-GFP10-1D4, log [agonist] (M) -4.79588): 39.105 and 47.513
normalized IP1 accumulation (SP-FLAG-Nluc-HT7-MRGX4_Tet-GFP10-1D4, log [agonist] (M) -5.49485): 24.2093 and 23.5323
normalized IP1 accumulation (SP-FLAG-Nluc-HT7-MRGX4_Tet-GFP10-1D4, log [agonist] (M) -6.19382): 9.755 and 12.1626
normalized IP1 accumulation (SP-FLAG-Nluc-HT7-MRGX4_Tet-GFP10-1D4, log [agonist] (M) -6.89279): 9.31 and 10.6126
normalized IP1 accumulation (SP-FLAG-Nluc-HT7-MRGX4_Tet-GFP10-1D4, log [agonist] (M) -7.59176): 10.0922 and 8.039
normalized IP1 accumulation (SP-FLAG-Nluc-HT7-MRGX4_Tet-GFP10-1D4 no dox, log [agonist] (M) -4.79588): 9.836 and 10.4491
normalized IP1 accumulation (SP-FLAG-Nluc-HT7-MRGX4_Tet-GFP10-1D4 no dox, log [agonist] (M) -5.49485): 7.573 and 7.949
normalized IP1 accumulation (SP-FLAG-Nluc-HT7-MRGX4_Tet-GFP10-1D4 no dox, log [agonist] (M) -6.19382): 7.652 and 7.516
normalized IP1 accumulation (SP-FLAG-Nluc-HT7-MRGX4_Tet-GFP10-1D4 no dox, log [agonist] (M) -6.89279): 8.115 and 7.953
normalized IP1 accumulation (SP-FLAG-Nluc-HT7-MRGX4_Tet-GFP10-1D4 no dox, log [agonist] (M) -7.59176): 8.427 and 8.747
normalized IP1 accumulation (SP-Flag-MRGX4-1D4, log [agonist] (M) -4): 90.7901 and 99.3577
normalized IP1 accumulation (SP-Flag-MRGX4-1D4, log [agonist] (M) -4.69897): 68.6541 and 83.0667
normalized IP1 accumulation (SP-Flag-MRGX4-1D4, log [agonist] (M) -5.39794): 34.48 and 31.1467
normalized IP1 accumulation (SP-Flag-MRGX4-1D4, log [agonist] (M) -6.09691): 13.1213 and 14.7496
normalized IP1 accumulation (SP-Flag-MRGX4-1D4, log [agonist] (M) -6.79588): 9.479 and 9.146
normalized IP1 accumulation (SP-Flag-MRGX4-1D4, log [agonist] (M) -7.49485): 7.648 and 7.711
normalized IP1 accumulation (SP-Flag-MRGX4-GFP10-1D4, log [agonist] (M) -4.69897): 81.9562 and 74.6812
normalized IP1 accumulation (SP-Flag-MRGX4-GFP10-1D4, log [agonist] (M) -5.39794): 38.7817 and 35.4094
normalized IP1 accumulation (SP-Flag-MRGX4-GFP10-1D4, log [agonist] (M) -6.09691): 15.3576 and 16.0977
normalized IP1 accumulation (SP-Flag-MRGX4-GFP10-1D4, log [agonist] (M) -6.79588): 8.66 and 9.498
normalized IP1 accumulation (SP-Flag-MRGX4-GFP10-1D4, log [agonist] (M) -7.49485): 9.929 and 8.168
IP1 Basal (Tet-On MRGPRX4 1pg/cell, Dox 13 ng/mL (Fig. S5B)): -3.433
EC50 (Tet-On MRGPRX4 1pg/cell, Dox 13 ng/mL (Fig. S5B), read-out: IP1 EC50): 19.2 µM
Emax (Tet-On MRGPRX4 1pg/cell, Dox 13 ng/mL (Fig. S5B), read-out: IP1 Emax): 17.4%
Emax (Tet-On MRGPRX4 1pg/cell, Dox 13 ng/mL (Fig. S5B), read-out: IP1 span): 20.8%
IP1 Basal (Tet-On MRGPRX4 1pg/cell, Dox 40 ng/mL (Fig. S5B)): -3.380
EC50 (Tet-On MRGPRX4 1pg/cell, Dox 40 ng/mL (Fig. S5B), read-out: IP1 EC50): 13.7 µM
Emax (Tet-On MRGPRX4 1pg/cell, Dox 40 ng/mL (Fig. S5B), read-out: IP1 Emax): 18.8%
Emax (Tet-On MRGPRX4 1pg/cell, Dox 40 ng/mL (Fig. S5B), read-out: IP1 span): 22.1%
IP1 Basal (Tet-On MRGPRX4 1pg/cell, Dox 1100 ng/mL (Fig. S5B)): -3.039
EC50 (Tet-On MRGPRX4 1pg/cell, Dox 1100 ng/mL (Fig. S5B), read-out: IP1 EC50): 10.8 µM
Emax (Tet-On MRGPRX4 1pg/cell, Dox 1100 ng/mL (Fig. S5B), read-out: IP1 Emax): 30.6%
Emax (Tet-On MRGPRX4 1pg/cell, Dox 1100 ng/mL (Fig. S5B), read-out: IP1 span): 33.7%
IP1 Basal (Tet-On MRGPRX4 1pg/cell, Dox 3300 ng/mL (Fig. S5B)): -1.008
